Data taken from patent US12622965B2, “Therapeutical tools and methods using temperature-sensitive receptors for treating blindness” (FRIEDRICH MIESCHER INSTITUTE FOR BIOMEDICAL RESEARCH, priority 2020, dated 2026).

Test system: HEK cells expressing TRPV1.459-6x-His, TRPV1.465-6x-His or untagged TRPV1
Experiment: whole cell voltage clamp in HEK cells expressing TRPV1 variants, activated by capsaicin
Assay type: cell-based
Details: TRPV1 agonist capsaicin 2.5 μM bath applied; voltage clamp −60 mV; mean±s.e.m
Excerpt: First, they developed a system based on rat TRPV1 channels and gold nanorods with absorption maxima at 915 nm. 915 nm was selected to ensure low water absorption. […] To measure if tagged channels are functional, they performed whole cell voltage clamp in HEK cells expressing TRPV1.459-6x-His, TRPV1.465-6x-His or untagged TRPV1 while activating the channels by TRPV1 agonist capsaicin. The size of evoked currents were similar between TRPV1.465-6x-His and TRPV1 (Mann-Whitney U test, P=0.8551; TRPV1.465-6x-His, 1633±164 pA, […] 15 cells; TRPV1, 1766±276 pA, n=14 cells; mean±s.e.m), but less in TRPV1.459-6x-His (Mann-Whitney U test, P=0.0207; TRPV1.459-6x-His, 976±118 pA, n=19 cells; mean±s.e.m). Therefore, they used TRPV1.465-6x-His (rTRPV1) in subsequent experiments.
For HEK293T cell experiments, cells were maintained at 37° C. on poly-D-lysine/laminin coated coverslips (GG-12-Laminin, Neuvitro) in DMEM supplemented with 10% fetal bovine serum. Cells were transfected with plasmids containing TRP variants using branched PEI. Cells were perfused in oxygenated Ringer's medium containing 110 mM NaCl, 2.5 mM KCl, 1 mM CaCl2, 1.6 mM MgCl2, 10 mM D-glucose and 22 mM NaHCO3 at ˜36° C. for the duration of the experiment. […] Data was analyzed offline using MATLAB (MathWorks).

**Q.** Which “size of evoked currents” value does the source give for “TRPV1: untagged rat TRPV1 channel [reference compound]” here?
**A.** 1766±276 pA
